From patent publication US20210030654A1, “ANTIOXIDANT COMPLEX AND COMPOSITION FOR FORMING SAME” (priority 2018, published 2021)

Columns and labels:
[1] = Solubility; format: physicochemical; settings: powder introduced into physiological saline
Text: The simple mixture is not preferable for a preparation method of the antioxidant complex according to the inventive concept.

[2] = system: Human red blood cells; assay: CAP-e bioassay (cellular antioxidant protection assay of red blood cells); format: cell-based; settings: AAPH-induced oxidative damage, FIGS. 3-5
Description: Cellular antioxidant protection (CAP-e) assay of red blood cells was used to evaluate the capacity of antioxidant complexes to protect cells from oxidative stress after the antioxidant complexes enter the cells.
Human red blood cells were treated for 20 minutes using the antioxidant complex serially diluted in physiological saline. During this incubation period, the antioxidant complexes that may pass through a cell membrane may enter the cells. After exposure of the red blood cells to the antioxidant complex which was tested twice for each dose of the antioxidant complex, the red blood cells were washed twice with PBS to remove the antioxidant complex that was not absorbed by the cells.
The red blood cells were loaded with an indicator dye DCF-DA that becomes fluorescent when oxidized, and then a peroxyl free radical generator AAPH was added thereto to induce oxidative damage to the cells. A relative fluorescence intensity of each cell culture was measured at 488 nanometers using a Tecan Spectrafluor plate reader (Tecan, Männedorf, Switzerland). A reference for oxidation at the cellular level was defined based on a low fluorescence intensity of untreated control cells (cells treated with PBS but not treated with a test product or AAPH). A positive control for cellular oxidative damage was defined as red blood cells exposed to AAPH alone under the absence of the antioxidant complex. […]

solubility in physiological saline [1]: almost completely insoluble
Compound: O=C1c2c(O)cc(O)cc2O[C@H](c2ccc(O)c(O)c2)[C@H]1O [dihydroquercetin powder, dihydroquercetin]
intracellular antioxidant capacity / cell protective capacity in CAP-e analysis [2]: did not exhibit the intracellular antioxidant capacity
